In US8476197B2, “Aminopropenoates as fungicides” (priority 2009, dated 2013):
Marks after values point to notes of the source that are not given here.

Conditions: pH 2.7

Row | Structure (SMILES) | Log P
1 | CC(C)C(C)NC(=C(C#N)C(=O)N1CCOCC1)c1cn(C)nc1C(F)F (stereo not drawn) [Compound 1326] | 2.43^[a]
2 | CC(NC(=C(C#N)C(=O)N1CCOCC1)c1cn(C)nc1C(F)F)c1nccs1 (stereo not drawn) [Compound 1327] | 1.79^[a]
3 | CC(NC(=C(C#N)C(=O)N1CCOCC1)c1cn(C)nc1C(F)F)c1ccccn1 (stereo not drawn) [Compound 1328] | 1.63^[a]
4 | CCNC(=O)C(C#N)=C(NC(C)c1ccccn1)c1ccnc(Cl)c1F (stereo not drawn) [Compound 1329] | 2.5^[a]
5 | CCOC(=O)C(C#N)=C(NC(C)c1nccs1)c1ccnc(Br)c1F (stereo not drawn) [Compound 1330] | 3^[a]
6 | CCOC(=O)C(C#N)=C(NC(C)c1nccs1)c1ccnc(SC)c1Cl (stereo not drawn) [Compound 1331] | 3.53^[a]
7 | CCOC(=O)C(C#N)=C(NC(CC)COC)c1cn(C)nc1C(F)F (stereo not drawn) [Compound 1332] | 2.71^[a]
8 | CCOC(=O)C(C#N)=C(NC1CCCCC1)c1cn(C)nc1C(F)F [Compound 1333] | 3.29^[a]
9 | CCOC(=O)C(C#N)=C(NC(CC)CN(C)C)c1cn(C)nc1C(F)F (stereo not drawn) [Compound 1334] | 1.22^[a]
10 | CCCC(CO)NC(=C(C#N)C(=O)OCC)c1cn(C)nc1C(F)F (stereo not drawn) [Compound 1335] | 2.28^[a]
11 | CC#CC1(NC(=C(C#N)C(=O)OCC)c2cn(C)nc2C(F)F)CCCCC1 [Compound 1336] | 3.71^[a]
12 | CCOC(=O)C(C#N)=C(NC1CCC(OCC)CC1)c1cn(C)nc1C(F)F (stereo not drawn) [Compound 1337] | 3.08^[a]
13 | CCOC(=O)C(C#N)=C(NC(CC)CC)c1cn(C)nc1C(F)F [Compound 1338] | 3.15^[a]
14 | CCOC(=O)C(C#N)=C(NC1COC1)c1cn(C)nc1C(F)F [Compound 1339] | 1.79^[a]
15 | CCOC(=O)C(C#N)=C(NCC1(C)CCCO1)c1cn(C)nc1C(F)F (stereo not drawn) [Compound 1340] | 2.54^[a]
16 | CCOC(=O)C(C#N)=C(NC(COC)COC)c1cn(C)nc1C(F)F [Compound 1341] | 2.42^[a]
17 | CCOC(=O)C(C#N)=C(NC(CC)CC#N)c1cn(C)nc1C(F)F (stereo not drawn) [Compound 1342] | 2.39^[a]
18 | CCCC(CC)NC(=C(C#N)C(=O)OCC)c1cn(C)nc1C(F)F (stereo not drawn) [Compound 1343] | 3.51^[a]
19 | CCOC(=O)C(C#N)=C(NC(C)CC(F)(F)F)c1cn(C)nc1C(F)F (stereo not drawn) [Compound 1346] | 2.77^[a]
20 | CCOC(=O)C(C#N)=C(NCCOc1ccccc1Br)c1cn(C)nc1C(F)F [Compound 1347] | 3.35^[a]
21 | CCOC(=O)C(C#N)=C(NCC(C)c1ccccc1Br)c1cn(C)nc1C(F)F (stereo not drawn) [Compound 1348] | 3.69^[a]

Row | Structure (SMILES) | Log P
22 | CCOC(=O)C(C#N)=C(NC(C(=O)OCC)c1ccccc1)c1cn(C)nc1C(F)F (stereo not drawn) [Compound 1349] | 3.25^[a]
23 | CCOCC(NC(=C(C#N)C(=O)OCC)c1cn(C)nc1C(F)F)C(C)C (stereo not drawn) [Compound 1350] | 3.39^[a]
24 | CCOCC(CC)NC(=C(C#N)C(=O)OCC)c1cn(C)nc1C(F)F (stereo not drawn) [Compound 1351] | 3.08^[a]
25 | CCOC(=O)C(C#N)=C(NC1CCCC1OC)c1cn(C)nc1C(F)F (stereo not drawn) [Compound 1352] | 2.78^[a]
26 | CCOC(=O)C(C#N)=C(NC1CCCC1OCC)c1cn(C)nc1C(F)F (stereo not drawn) [Compound 1353] | 3.21^[a]
27 | CCCC(COCC)NC(=C(C#N)C(=O)OCC)c1cn(C)nc1C(F)F (stereo not drawn) [Compound 1354] | 3.44^[a]
28 | CCOC(=O)C(C#N)=C(NC1CSC1)c1cn(C)nc1C(F)F [Compound 1355] | 2.54^[a]
29 | CCOC(=O)C(C#N)=C(NC1COC1)c1cccnc1Cl [Compound 1356] | 1.84^[a]
30 | CCOC(=O)C(C#N)=C(NCC1(C)CCCO1)c1cccnc1Cl (stereo not drawn) [Compound 1357] | 2.7^[a]
31 | CCOC(=O)C(C#N)=C(NC(COC)COC)c1cccnc1Cl [Compound 1358] | 2.56^[a]
32 | CCOC(=O)C(C#N)=C(NC(CC)CC#N)c1cccnc1Cl (stereo not drawn) [Compound 1359] | 2.51^[a]
33 | CCOC(=O)C(C#N)=C(NC1(c2ccc(Cl)cc2)CC1)c1cn(C)nc1C(F)F [Compound 1360] | 3.58^[a]
34 | CCOC(=O)C(C#N)=C(NC1(c2cccc(Cl)c2)CC1)c1cn(C)nc1C(F)F [Compound 1361] | 3.51^[a]
35 | CCOC(=O)C(C#N)=C(NC1(c2ccccc2Cl)CC1)c1cn(C)nc1C(F)F [Compound 1362] | 3.35^[a]
36 | CCOC(=O)C(C#N)=C(NC(c1ccc(Cl)cc1)C1CC1)c1cn(C)nc1C(F)F (stereo not drawn) [Compound 1363] | 3.89^[a]
37 | CCOC(=O)C(C#N)=C(NC1(c2ccccc2)CC1)c1cn(C)nc1C(F)F [Compound 1364] | 3.21^[a]
38 | CCOC(=O)C(C#N)=C(NC(C)c1ccccc1C)c1cn(C)nc1C(F)F (stereo not drawn) [Compound 1365] | 3.46^[a]
39 | CCOC(=O)C(C#N)=C(NC(C)CC(F)(F)F)c1cccnc1Cl (stereo not drawn) [Compound 1366] | 2.92^[a]
40 | CCOC(=O)C(C#N)=C(NC(CC)COC)c1cccnc1Cl (stereo not drawn) [Compound 1367] | 2.92^[a]
41 | CCCC(CO)NC(=C(C#N)C(=O)OCC)c1cccnc1Cl (stereo not drawn) [Compound 1368] | 2.45^[a]
42 | CCOC(=O)C(C#N)=C(NC1CCS(=O)(=O)C1)c1cccnc1Cl (stereo not drawn) [Compound 1369] | 1.84^[a]

Row | Structure (SMILES) | Log P
43 | CCOC(=O)C(C#N)=C(NC1CCC(OCC)CC1)c1cccnc1Cl (stereo not drawn) [Compound 1370] | 3.31^[a]
44 | CCOC(=O)C(C#N)=C(NC(CC)CC)c1cccnc1Cl [Compound 1371] | 3.35^[a]
45 | CCOCC(CC)NC(=C(C#N)C(=O)OCC)c1cccnc1Cl (stereo not drawn) [Compound 1372] | 3.31^[a]
46 | CCOC(=O)C(C#N)=C(NC1CCCC1OCC)c1cccnc1Cl (stereo not drawn) [Compound 1373] | 3.44^[a]
47 | CCOC(=O)C(C#N)=C(NC1CSC1)c1cccnc1Cl [Compound 1374] | 2.64^[a]
48 | CCCC(COC)NC(=C(C#N)C(=O)OCC)c1cccnc1Cl (stereo not drawn) [Compound 1375] | 3.31^[a]
49 | CCOCC(COCC)NC(=C(C#N)C(=O)OCC)c1cccnc1Cl [Compound 1376] | 3.33^[a]
50 | CCOC(=O)C(C#N)=C(NCCOc1ccccc1Br)c1cccnc1Cl [Compound 1377] | 3.53^[a]
51 | CCOC(=O)C(C#N)=C(NCC(C)c1ccccc1Br)c1cccnc1Cl (stereo not drawn) [Compound 1378] | 3.94^[a]
52 | CCOC(=O)C(C#N)=C(NC(C(=O)OCC)c1ccccc1)c1cccnc1Cl (stereo not drawn) [Compound 1379] | 3.39^[a]
53 | CCCc1nccc(C(NC(C)c2nccs2)=C(C#N)C(=O)OCC)c1Cl (stereo not drawn) [Compound 1382] | 3.27^[a]
54 | CCOC(=O)C(C#N)=C(NC(C)c1nccs1)c1ccnc(CC)c1Cl (stereo not drawn) [Compound 1383] | 2.92^[a]
55 | CCOC(=O)C(C#N)=C(NC(C)c1nccs1)c1ccnc(CC(C)C)c1Cl (stereo not drawn) [Compound 1384] | 3.64^[a]
56 | CCOC(=O)C(C#N)=C(NC(C)c1nccs1)c1ccnc(-c2ccccc2)c1Cl (stereo not drawn) [Compound 1385] | 3.31^[a]
57 | CCOC(=O)C(C#N)=C(NC(C)C(=O)NC)c1ccnc(Cl)c1Cl (stereo not drawn) [Compound 1387] | 2.1^[a]
58 | CCOC(=O)C(C#N)=C(Nc1ccccc1SC)c1ccnc(Cl)c1Cl [Compound 1388] | 3.89^[a]
59 | CCOC(=O)C(C#N)=C(NC(C)COC)c1ccnc(Cl)c1Cl (stereo not drawn) [Compound 1392] | 3.06^[a]
60 | CCOC(=O)C(C#N)=C(NC(C)C(C)C)c1ccnc(CC)c1Cl (stereo not drawn) [Compound 1399] | 4.02^[a]
61 | CCCc1nccc(C(NC(C)C(C)C)=C(C#N)C(=O)OCC)c1Cl (stereo not drawn) [Compound 1400] | 4.41^[a]
62 | CCOC(=O)C(C#N)=C(NC(C)C(C)C)c1ccnc(SC)c1Cl (stereo not drawn) [Compound 1401] | 4.44^[a]
63 | CCOC(=O)C(C#N)=C(NC(C)C(C)C)c1ccnc(CC(C)C)c1Cl (stereo not drawn) [Compound 1402] | 4.81^[a]

Row | Structure (SMILES) | Log P
64 | CCOC(=O)C(C#N)=C(NC(C)C(C)C)c1ccnc(-c2ccccc2)c1Cl (stereo not drawn) [Compound 1403] | 4.34^[a]
65 | CCOC(=O)C(C#N)=C(NC(C)C(C)C)c1ccnc(Cl)c1Br (stereo not drawn) [Compound 1405] | 3.92^[a]
66 | CCNC(=O)C(C#N)=C(NC(C)C(C)C)c1ccnc(Cl)c1Br (stereo not drawn) [Compound 1408] | 3.53^[a]
67 | CCOC(=O)C(C#N)=C(NC(C)C(C)C)c1ccnc(Br)c1Br (stereo not drawn) [Compound 1410] | 3.96^[a]
68 | CCOC(=O)C(C#N)=C(NCc1ncccc1Cl)c1cccnc1Cl [Compound 1412] | 2.78^[a]
69 | CCOC(=O)C(C#N)=C(NCc1ncccc1Cl)c1cccnc1Cl [Compound 1413] | 2.77^[a]
70 | CCOC(=O)C(C#N)=C(NC(C)c1nc(C2CC2)cs1)c1cccnc1Cl (stereo not drawn) [Compound 1416] | 3.37^[a]
71 | CCOC(=O)C(C#N)=C(NC(CC(C)C)C(F)(F)F)c1cn(C)nc1C(F)F (stereo not drawn) [Compound 1417] | 3.8^[a]
72 | CCOC(=O)C(C#N)=C(NC(C)(C)C)c1cn(C)nc1C(F)F [Compound 1418] | 2.66^[a]
73 | CCOC(=O)C(C#N)=C(NC(C)C)c1cn(C)nc1C(F)F [Compound 1419] | 2.53^[a]
74 | CCOC(=O)C(C#N)=C(NC1CCS(=O)(=O)C1)c1cn(C)nc1C(F)F (stereo not drawn) [Compound 1420] | 1.79^[a]
75 | CCOC(=O)C(C#N)=C(NC(C)(C)CC)c1cn(C)nc1C(F)F [Compound 1421] | 2.96^[a]
76 | CCOC(=O)C(C#N)=C(NC(C#N)C(C)C)c1cn(C)nc1C(F)F (stereo not drawn) [Compound 1422] | 2.76^[a]
77 | CCOC(=O)C(C#N)=C(NCC1(C)COC1)c1cn(C)nc1C(F)F [Compound 1423] | 2.04^[a]
78 | CCCC(NC(=C(C#N)C(=O)OCC)c1cn(C)nc1C(F)F)C(F)(F)F (stereo not drawn) [Compound 1424] | 3.53^[a]
79 | CCOC(=O)C(C#N)=C(NC(C)(C)CC)c1cccnc1Cl [Compound 1425] | 3.23^[a]
80 | CCOC(=O)C(C#N)=C(Nc1cc(C(F)(F)F)ccc1SC)c1cn(C)nc1C(F)F [Compound 1426] | 3.67^[a]
81 | CCOC(=O)C(C#N)=C(Nc1ccccc1C(O)(C(F)(F)F)C(F)(F)F)c1cn(C)nc1C(F)F [Compound 1427] | 3.25^[a]
82 | CCOC(=O)C(C#N)=C(NC(CC(F)(F)F)c1ccccc1)c1cn(C)nc1C(F)F (stereo not drawn) [Compound 1428] | 3.37^[a]

Same assay, conditions: pH 7.5

Row | Structure (SMILES) | Log P
83 | CCOC(=O)C(C#N)=C(NC(C)c1ccccn1)c1ccc(C)nc1Cl (stereo not drawn) [Compound 1380] | 2.67
84 | CCOC(=O)C(C#N)=C(NC(C)c1ccccn1)c1ccc(Cl)nc1Cl (stereo not drawn) [Compound 1381] | 3.06
